According to the supplement of paper PMC10307832:

Legend:
Test in all cases: relative viability (nuclei count vs DMSO), 5 days (fraction); higher = more cells survive
COR-L23 = tested on: COR-L23
Method in brief: (§1)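 Lung cancer cell lines in 1536-well plates got either a single drug or a fixed anchor-drug dose together with five library-drug doses (not always all listed) in √10 steps, by pin tool, on the day after seeding. Nuclei were counted after 5 days, and relative viability is the treated-to-vehicle ratio of nuclei counts. Values are medians of duplicate plates.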

ChaGo-K-1 = tested on: ChaGo-K-1
Method in brief: as §1

EPLC-272H = tested on: EPLC-272H
Method in brief: as §1

H3255 = tested on: H3255
Method in brief: as §1

HARA = tested on: HARA
Method in brief: as §1

HCC-78 = tested on: HCC-78
Method in brief: as §1

HOP-62 = tested on: HOP-62
Method in brief: as §1

LCLC-97TM1 = tested on: LCLC-97TM1
Method in brief: as §1

LXF-289 = tested on: LXF-289
Method in brief: as §1

NCI-H1395 = tested on: NCI-H1395
Method in brief: as §1

NCI-H1437 = tested on: NCI-H1437
Method in brief: as §1

NCI-H1650 = tested on: NCI-H1650
Method in brief: as §1

Cc1csc(=NC2CCCCC2)n1/N=C/c1ccc(O)c(O)c1O [MIM1] + CC(=O)Nc1cccc(-n2c(=O)n(C3CC3)c(=O)c3c(Nc4ccc(I)cc4F)n(C)c(=O)c(C)c32)c1 [Trametinib] (partner 0.02 µM)
relative viability (COR-L23; first compound 0.2 µM): 0.509
relative viability (COR-L23; first compound 0.6325 µM): 0.619
relative viability (COR-L23; first compound 2 µM): 0.571
relative viability (COR-L23; first compound 6.325 µM): 0.388
relative viability (COR-L23; first compound 20 µM): 0.306
relative viability (ChaGo-K-1; first compound 0.2 µM): 0.889
relative viability (ChaGo-K-1; first compound 0.6325 µM): 0.913
relative viability (ChaGo-K-1; first compound 2 µM): 0.876
relative viability (ChaGo-K-1; first compound 6.325 µM): 0.607
relative viability (ChaGo-K-1; first compound 20 µM): 0.193
relative viability (EPLC-272H; first compound 0.2 µM): 0.322
relative viability (EPLC-272H; first compound 0.6325 µM): 0.279
relative viability (EPLC-272H; first compound 2 µM): 0.273
relative viability (EPLC-272H; first compound 6.325 µM): 0.24
relative viability (EPLC-272H; first compound 20 µM): 0.16
relative viability (H3255; first compound 0.2 µM): 0.578
relative viability (H3255; first compound 0.6325 µM): 0.618
relative viability (H3255; first compound 2 µM): 0.56
relative viability (H3255; first compound 6.325 µM): 0.529
relative viability (H3255; first compound 20 µM): 0.293
relative viability (HARA; first compound 0.2 µM): 0.707
relative viability (HARA; first compound 0.6325 µM): 0.608
relative viability (HARA; first compound 2 µM): 0.641
relative viability (HARA; first compound 6.325 µM): 0.216
relative viability (HARA; first compound 20 µM): 0.173
relative viability (HCC-78; first compound 0.2 µM): 0.75
relative viability (HCC-78; first compound 2 µM): 0.778
relative viability (HCC-78; first compound 6.325 µM): 0.556
relative viability (HCC-78; first compound 20 µM): 1.15
relative viability (HOP-62; first compound 0.2 µM): 0.386
relative viability (HOP-62; first compound 0.6325 µM): 0.417
relative viability (HOP-62; first compound 2 µM): 0.379
relative viability (HOP-62; first compound 6.325 µM): 0.344
relative viability (HOP-62; first compound 20 µM): 0.266
relative viability (LCLC-97TM1; first compound 0.2 µM): 0.207
relative viability (LCLC-97TM1; first compound 0.6325 µM): 0.218
relative viability (LCLC-97TM1; first compound 2 µM): 0.217
relative viability (LCLC-97TM1; first compound 6.325 µM): 0.196
relative viability (LCLC-97TM1; first compound 20 µM): 0.0682
relative viability (LXF-289; first compound 0.2 µM): 0.625
relative viability (LXF-289; first compound 0.6325 µM): 0.664
relative viability (LXF-289; first compound 2 µM): 0.705
relative viability (LXF-289; first compound 6.325 µM): 0.607
relative viability (LXF-289; first compound 20 µM): 0.221
relative viability (NCI-H1395; first compound 0.2 µM): 0.976
relative viability (NCI-H1395; first compound 0.6325 µM): 1.04
relative viability (NCI-H1395; first compound 2 µM): 0.937
relative viability (NCI-H1395; first compound 6.325 µM): 0.812
relative viability (NCI-H1395; first compound 20 µM): 0.54
relative viability (NCI-H1437; first compound 0.2 µM): 0.454
relative viability (NCI-H1437; first compound 0.6325 µM): 0.475
relative viability (NCI-H1437; first compound 2 µM): 0.456
relative viability (NCI-H1437; first compound 6.325 µM): 0.239
relative viability (NCI-H1437; first compound 20 µM): 0.237
relative viability (NCI-H1650; first compound 0.2 µM): 0.697
relative viability (NCI-H1650; first compound 0.6325 µM): 0.619
